The subject of one assay is Pythium aphanidermatum. In words: Microplate based screening of bioactivity against Pythium aphanidermatum. Type of assay: cell-based. To be noted: 10 μl of 250 ppm solution + 40 μl inoculum, activity grade x repeats x days of activity/252 x 100. How it is done:
Grow Pythium aphanidermatum on SCH in 90 mm petri plates to get sporulating hyphae. Each plate will produce 50 ml of zoospores suspension which will be enough for bioactivity screening for ten 96-well plates.
Add the same volume (as the suspension) sterile fridge cold 2:PDBC to get 500-2000 spores/ml inoculum. This dilution will result in the amount of 25-100 zoospores in each well. […]
Screening of Plates: • 1) Read out the plate at […]: 3d, 7d, 14d and 21d following the assay start • 2) Calculate the difference of absorbance between each readout and the readout at zero time • 3) Calculate the percentage of growth inhibition of each well at each time point. […]

The subject of a further assay is Rhizoctonia solani. The assay can be described thus: Microplate based assay of bioactivity against Rhizoctonia solani. To be noted: 10 μl of 250 ppm solution + 40 μl inoculum, activity grade x repeats x days of activity/252 x 100. The assay is classed as cell-based. How it is done:
Diluted in DMSO Licochalcone C was added to microplate wells and mixed with 50 μl of hyphae suspension and growth of the fungus, starting from blended hyphae, was monitored by plate reader and visual inspection. Inoculum Preparation of Rhizoctonia solani Hyphae: The concentration of the suspension should be 4×10^4 CFU/ml (diluted 10-fold concentration should be 4000 CFU/ml). Dilute the inoculum stock 1:20 in PDBC—1 ml in 20 ml, or calculate the dilution needed, to prepare final concentration of 2000 CFU/ml. The amount in each well should be about 100 CFU. […] Screening of Plates: • 1) Screen plate at […]: 3d, 7d, 14d and 21d following the assay start • 2) Calculate the difference of absorbance between each screen and the read at zero time • 3) Calculate the percentage of growth inhibition of each well at each time point. […]

`COc1c(/C=C/C(=O)c2ccc(O)cc2)ccc(O)c1CC=C(C)C` [Licochalcone C, (E)-3-[4-hydroxy-2-methoxy-3-(3-methylbut-2-enyl)phenyl]-1-(4-hydroxyphenyl)prop-2-en-1-one]: the “Relative Activity value (%)” value with Pythium aphanidermatum and in the assay on Rhizoctonia solani was 100% throughout.

Values taken from patent US20240049707A1, “PESTICIDE COMPOSITIONS OF LICOCHALCONE C” (METABOLIC INSIGHTS LTD., priority 2020, published 2024).
